Patent US20050075354A1, “Complexes of E-2-Methoxy-N(3-{4-[3-methyl-4-(6-methyl-pyridin-3-yloxy)-phenylamino]-quinzazolin-6-YL}-allyl)-acetamide, their method of production, and use” (Pfizer Inc, priority 2002, published 2005)

Legend:
Type in all cases: physicochemical
[1] = Hygroscopicity (weight gain at relative humidity); conditions: for Hygroscopicity (by weight): at 90% relative humidity; for Hygroscopicity (general statement): description, no conditions stated
[2] = Chemical stability (general statement); conditions: description, no conditions stated
[3] = Hygroscopicity in relative humidity chambers; conditions: after 16 hours
Procedure: The material was evaluated for hygroscopicity in relative humidity chambers.

## CCS(=O)(=O)O.CCS(=O)(=O)O.COCC(=O)NC/C=C/c1ccc2ncnc(Nc3ccc(Oc4ccc(C)nc4)c(C)c3)c2c1 [diesylate complex, E-2-Methoxy-N-(3-{4-[3-methyl-4-(6-methyl-pyridin-3-yloxy)-phenylamino]-quinazolin-6-yl}-allyl)-acetamide diesylate]
[1]
  Hygroscopicity (by weight): 45%

## COCC(=O)NC/C=C/c1ccc2ncnc(Nc3ccc(Oc4ccc(C)nc4)c(C)c3)c2c1.O=C(O)/C=C\C(=O)O.O=C(O)/C=C\C(=O)O [dimaleate, E-2-Methoxy-N-(3-{4-[3-methyl-4-(6-methyl-pyridin-3-yloxy)-phenylamino]-quinazolin-6-yl}-allyl)-acetamide Dimaleate]
[2]
  Chemical stability: chemically stable
[1]
  Hygroscopicity (by weight): 0.6%
  Hygroscopicity (general statement): non-hygroscopic

## COCC(=O)NC/C=C/c1ccc2ncnc(Nc3ccc(Oc4ccc(C)nc4)c(C)c3)c2c1.O=[N+]([O-])O.O=[N+]([O-])O [dinitrate, E-2-Methoxy-N-(3-{4-[3-methyl-4-(6-methyl-pyridin-3-yloxy)-phenylamino]-quinazolin-6-yl}-allyl)-acetamide dinitrate]
[1]
  Hygroscopicity (by weight): ~7%

## COCC(=O)NC/C=C/c1ccc2ncnc(Nc3ccc(Oc4ccc(C)nc4)c(C)c3)c2c1.O=S(=O)(O)c1ccccc1 [monobesylate, E-2-Methoxy-N-(3-{4-[3-methyl-4-(6-methyl-pyridin-3-yloxy)-phenylamino]-quinazolin-6-yl}-allyl)-acetamide monobesylate]
[3]; 75% RH chamber
  Water sorption: no significant water sorption
[3]; 94% RH chamber
  Weight increase: 6.7%
[3]; 100% relative humidity chamber
  Deliquescence: deliquescence was observed

## COCC(=O)NC/C=C/c1ccc2ncnc(Nc3ccc(Oc4ccc(C)nc4)c(C)c3)c2c1.Cl [monohydrochloride, E-2-Methoxy-N-(3{4-[3-methyl-4-(6-methyl-pyridin-3-yloxy)-phenylamino]-quinazolin-6-yl}-allyl)-acetamide Monohydrochloride]
[2]
  Chemical stability: chemically stable
[1]
  Hygroscopicity (general statement): non-hygroscopic

## COCC(=O)NC/C=C/c1ccc2ncnc(Nc3ccc(Oc4ccc(C)nc4)c(C)c3)c2c1.O=P(O)(O)O [monophosphate, E-2-Methoxy-N-(3{4-[3-methyl-4-(6-methyl-pyridin-3-yloxy)-phenylamino]-quinazolin-6-yl}-allyl)-acetamide Monophosphate]
[2]
  Chemical stability: chemically stable
[1]
  Hygroscopicity (general statement): non-hygroscopic

## CC1(C)C2CCC1(CS(=O)(=O)O)C(=O)C2.COCC(=O)NC/C=C/c1ccc2ncnc(Nc3ccc(Oc4ccc(C)nc4)c(C)c3)c2c1 [racemic camsylate, racemic E-2-Methoxy-N-(3-{4-[3-methyl-4-(6-methyl-pyridin-3-yloxy)-phenylamino]-quinazolin-6-yl}-allyl)-acetamide camsylate]
[1]; camsylate samples, conditions not stated
  Hygroscopicity (in words): hygroscopic to the point of deliquescence
